pIC50: −log10 of the molar value. Where only a bound is given, the exact number is not on record here.

Data on 2 molecules can be found in ChEMBL document CHEMBL5725522, “Inhibitors of bruton's tyrosine kinase” (2017).

In the test the target is Tyrosine-protein kinase BTK (Homo sapiens, UniProt Q06187). Briefly: TR-FRET (Time Resolved FRET) Assay: This BTK competition assay measures compound potency (IC50) for the inactivated state of Bruton's Tyrosine Kinase using FRET (Förster/Fluorescence Resonance Energy Transfer) technology. The BTK-Eu complex was incubated on ice one hour prior to use at a starting concentration of 50 nM BTK-Bioease: 10 nM Eu-streptavidin (Perkin-Elmer Catalog#AD0062). The assay buffer consisted of 20 mM HEPES (pH 7.15), 0.1 mM DTT, 10 mM MgCl2, 0.5 mg/ml BSA with 3% Kinase Stabilizer (Fremont Biosolutions, Catalog #STB-K02). After 1 h, the reaction mixture from above was diluted 10 fold in assay buffer to make 5 nM BTK: 1 nM Eu-Streptavidin complex (donor fluorophore). 18 μl of a mixture of 0.11 nM BTK-Eu and 0.11 nM Kinase Tracer 178 (Invitrogen, Catalog #PV5593,) with BTK-Eu alone as no negative control, was then dispensed into 384-well flat bottom plates (Greiner, 784076). Compounds to be tested in assay were prepared as 10× concentrations and serial dilution in half-log increments was performed in DMSO so as to generate 10 point curves. […]. (In general: Time-resolved FRET reads energy transfer from a long-lived donor to a nearby acceptor.)
Chain of Tyrosine-protein kinase BTK (Q06187 whole entry): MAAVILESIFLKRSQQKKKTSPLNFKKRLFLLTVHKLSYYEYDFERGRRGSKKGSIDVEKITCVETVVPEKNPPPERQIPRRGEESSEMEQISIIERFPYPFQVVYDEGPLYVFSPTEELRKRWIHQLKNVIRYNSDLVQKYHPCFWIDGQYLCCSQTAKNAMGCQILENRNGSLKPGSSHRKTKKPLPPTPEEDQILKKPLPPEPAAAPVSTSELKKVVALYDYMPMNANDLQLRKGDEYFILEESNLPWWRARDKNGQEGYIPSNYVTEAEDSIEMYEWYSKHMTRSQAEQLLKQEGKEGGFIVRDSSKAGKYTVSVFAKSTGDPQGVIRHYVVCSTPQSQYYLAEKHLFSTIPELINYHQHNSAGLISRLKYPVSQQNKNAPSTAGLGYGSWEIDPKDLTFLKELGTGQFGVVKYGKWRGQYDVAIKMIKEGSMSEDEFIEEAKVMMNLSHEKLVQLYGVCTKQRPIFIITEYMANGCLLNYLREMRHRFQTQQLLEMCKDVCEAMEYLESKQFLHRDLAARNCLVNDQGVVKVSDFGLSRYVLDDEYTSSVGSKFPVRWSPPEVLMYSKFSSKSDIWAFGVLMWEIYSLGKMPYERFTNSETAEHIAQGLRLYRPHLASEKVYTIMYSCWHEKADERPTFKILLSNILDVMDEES

By pIC50 is commonly meant −log10 of the IC50, conventionally taken in molar units. On to `O=C(c1cc2cc(C(=O)N3CCOCC3)ccc2[nH]1)c1cnn2c1[nH]c(=O)c1cc(Oc3cccc(F)c3F)ccc12`, for which the pIC50 was < 4.00.
In the case of `CN1CCC(NC(=O)c2ccc3[nH]c(C(=O)c4cnn(-c5ccc(Oc6ccccc6C(=O)N(C)C)cc5Cl)c4N)cc3c2)C1` (configuration not stated), the pIC50 is 8.54.
